pIC50: −log10 of the molar value. Like-named read-outs stand apart in the source and are kept apart here.
Tested on: THP1 cells
Assay: Inhibition of binding and accumulation of cyanine 3-marked LDLox as lipid vesicles in differentiated THP1 macrophage cells
Type: cell-based
Procedure: The culture medium may be replaced every two days.
In the present example, the accumulation of lipid vesicles within the cell was measured using THP1 cells following fixation with paraformaldehyde in PBS medium using a solution containing a fluorescent marker of the Oil Red O type in order to visualise the vesicles. The image of the cells rich in vesicles was analysed using a microscope ecqluipped with a CCD camera and software necessary for the analysis.
The medium was replaced every 2-3 days.
The differentiated THP-1 were subsequently incubated with LDLox coupled with cyanine-3 (1.5 μg/ml) in the presence or absence of the molecule CGP02-01 (concentrations of between 10^−5M and 3.1.6 10^−10M) for 24 hours at 37° C., 5% CO2. […] Each image was analysed and quantified with the MetaMorph software (Universal Imaging).

## COc1cc(O)c(/C=N/NC(=O)c2cc3ccccc3s2)c(OC)c1 [CGP02-01, N′-[(1E)-(2-hydroxy-4,6-dimethoxyphenyl)methylene]-1-benzothiophene-2-carbohydrazide]
1 μM, differentiated THP1 macrophage cells
  Inhibition of the accumulation of lipid vesicles: major inhibition
Homo sapiens, THP-1, cells expressing the scavenger CD36, lipoproteins marked with cyanine 3, read-out: Inhibition of accumulation of LDLox in (%)
  inhibition at 2.5 µM: 76%
Homo sapiens, THP-1, lipoproteins marked with Cyanine 3, dose response curve, FIG. 1, read-out: CI50, accumulation of lipid vesicles in macrophage cell
  pIC50: 6.30
Homo sapiens, THP-1 cells, 24 hours, read-out: Inhibition at 2.5 μM on THP-1 cells (24 hours)
  inhibition at 2.5 µM: 76%

Reference: patent US20070161697A1, “Hydrazide type compounds and the use thereof in pharmaceutical compositions for the treatment of cardiovascular diseases” (priority 2004, published 2007)
